# Measured values from article PMC7503500, “A Structure-Activity Relationship Comparison of Imidazodiazepines Binding at Kappa, Mu, and Delta Opioid Receptors and the GABAA Receptor” (Molecules, 2020).
# Like-named read-outs stand apart in the source and are kept apart here.
# Tests used:
# [1] = tested on: synaptic benzodiazepine-sensitive receptors (BZR), GABAAR; experiment: 3H-flunitrazepam binding, rat brain homogenate; details: for BZR % (percent inhibition): at 10,000 nM; for Ki: read-out: BZR (Ki)
# µ opioid receptor (MOR) = µ opioid receptor (MOR) (Homo sapiens, UniProt P35372); experiment: Radioligand competition binding, MOR ([3H]-DAMGO), HEK293 cell homogenates; details: [3H]-DAMGO; for inhibition at 10 µM: read-out: MOR % (percent inhibition), at 10,000 nM; for MOR % (percent inhibition): at 10,000 nM
# δ opioid receptor (DOR) = δ opioid receptor (DOR) (Homo sapiens, UniProt P41143); experiment: Radioligand competition binding, DOR ([3H]-DADLE), HEK293 cell homogenates; details: for inhibition at 10 µM: read-out: DOR % (percent inhibition), at 10,000 nM; for DOR % (percent inhibition): at 10,000 nM
# κ opioid receptor (KOR) = κ opioid receptor (KOR) (Homo sapiens, UniProt P41145); experiment: Radioligand competition binding, KOR ([3H]-U69593), HEK293 cell homogenates; details: for inhibition at 10 µM: read-out: KOR % (percent inhibition), at 10,000 nM; for inhibition at 10 µM / KOR % (percent inhibition): [3H]-U69593; for KOR % (percent inhibition): at 10,000 nM
# [2] = read-out: KOR (Ki), [3H]-U69593, HEK293 homogenates
Compound,BZR % (percent inhibition) [1] [%],Ki [1] [nM],inhibition at 10 µM (µ opioid receptor (MOR)) [%],inhibition at 10 µM (δ opioid receptor (DOR)) [%],inhibition at 10 µM (κ opioid receptor (KOR)) [%],MOR % (percent inhibition) (µ opioid receptor (MOR)) [%],DOR % (percent inhibition) (δ opioid receptor (DOR)) [%],KOR % (percent inhibition) (κ opioid receptor (KOR)) [%],Ki (κ opioid receptor (KOR); [2]) [nM],Ki (κ opioid receptor (KOR)) [nM],"Ki (µ opioid receptor (MOR); read-out: MOR Ki, HEK293 homogenates) [nM]"
C#Cc1ccc2c(c1)C(c1ccccn1)=NCc1c(-c3ocnc3C)ncn1-2 [KRM-III-79],81,308,32,1,9,–,–,–,–,–,–
C[C@H]1N=C(c2ccccc2F)c2cc(Br)ccc2-n2cnc(-c3cnco3)c21 [GL-III-36],86,319,–,–,–,0,12,88,246,–,–
C#Cc1ccc2c(c1)C(c1ccccc1F)=N[C@@H](C)c1c(C(=O)NC)ncn1-2 [MP-III-023],97,37,0,16,91,–,–,–,–,119,–
C#Cc1ccc2c(c1)C(c1ccccc1F)=N[C@@H](C)c1c(C(=O)N(C)C)ncn1-2 [GL-I-54],94,90,18,11,78,–,–,–,–,788,–
C#Cc1ccc2c(c1)C(c1ccccc1F)=N[C@H](C)c1c(C(=O)N(C)C)ncn1-2 [GL-II-73],75,506,6,0,58,–,–,–,–,1190,–
CCOC(=O)c1ncn2c1[C@H](C)N=C(c1ccccc1F)c1cc(Br)ccc1-2 [SH-I-048B],61,96,–,–,–,0,0,95,–,–,–
C#Cc1ccc2c(c1)C(c1ccccc1F)=N[C@H](C)c1c(C(=O)NC3CC3)ncn1-2 [GL-II-75],85,93,0,3,81,–,–,–,–,278,–
C#Cc1ccc2c(c1)C(c1ccccc1F)=N[C@@H](C)c1c(C(=O)NC(C)(C)C)ncn1-2 [GL-I-41],90,140,40,10,97,–,–,–,–,39,–
C#Cc1ccc2c(c1)C(c1ccccc1F)=N[C@@H](C)c1c(-c3nc(C(C)C)no3)ncn1-2 [GL-I-81],83,839,–,–,–,64,25,93,127,–,2920
C#Cc1ccc2c(c1)C(c1ccccc1F)=N[C@H](C)c1c(-c3nc(C(C)C)no3)ncn1-2 [MP-IV-010],64,814,–,–,–,33,5,94,145,–,–
C#Cc1ccc2c(c1)C(c1ccccn1)=NCc1c(-c3nc(C)no3)ncn1-2 [MP-III-085],82,357,0,0,40,–,–,–,–,–,–
C#Cc1ccc2c(c1)C(c1ccccc1F)=N[C@@H](C)c1c(C(=O)O)ncn1-2 [SH-053-2′F-S-CH3-Acid],93,29,0,18,20,–,–,–,–,–,–
C#Cc1ccc2c(c1)C(c1ccccc1F)=N[C@H](C)c1c(C(=O)N3CCCC3)ncn1-2 [GL-II-76],43,–,0,0,80,–,–,–,–,371,–
C#Cc1ccc2c(c1)C(c1ccccc1F)=N[C@H](C)c1c(C(=O)NC)ncn1-2 [MP-III-022],95,83,3,22,80,–,–,–,–,–,–
Brc1ccc2c(c1)C(c1ccccc1)=NCc1c(-c3cnco3)ncn1-2 [KRM-II-73],97,45,11,32,83,–,–,–,–,736,–
C#Cc1ccc2c(c1)C(c1ccccc1)=NCc1c(-c3cnco3)ncn1-2 [KRM-II-82],95,96,5,20,78,–,–,–,–,1200,–
C#Cc1ccc2c(c1)C(c1ccccc1F)=N[C@@H](C)c1c(C(=O)OC(C)C)ncn1-2 [GL-I-31],97,245,32,8,94,–,–,–,–,65,–
